Experimental data from ChEMBL document CHEMBL5579834 (Eur J Med Chem, 2024).

Key:
Marburgvirus = experiment: Antiviral activity against HIV-based lentiviral pseudotyped Marburgvirus harboring mucin domain deleted GP infected in HEK293T cells assessed as inhibition of viral entry preincubated with virus for 1 hr followed by cell infection and measured after 48 hrs by luminescence assay; format: functional, organism-based; settings: Orthomarburgvirus, HEK-293T
Ebolavirus [1] = experiment: Antiviral activity against HIV-based lentiviral pseudotyped Ebolavirus harboring mucin domain deleted GP infected in HEK293T cells assessed as inhibition of viral entry preincubated with virus for 1 hr followed by cell infection and measured after 48 hrs by luminescence assay; format: functional, organism-based; settings: Orthoebolavirus, HEK-293T
[2] = Selectivity index, ratio of CC50 for HEK293T cells to IC50 for antiviral activity against HIV-based lentiviral pseudotyped Ebolavirus harboring mucin domain deleted GP infected in HEK293T cells assessed as inhibition of viral entry; format: toxicity, cell-based; settings: human, read-out: Ratio CC50/IC50
[3] = Selectivity index, ratio of CC50 for HEK293T cells to IC50 for antiviral activity against HIV-based lentiviral pseudotyped Marburgvirus harboring mucin domain deleted GP infected in HEK293T cells assessed as inhibition of viral entry; format: toxicity, cell-based; settings: human, read-out: Ratio CC50/IC50
Ebolavirus [4] = experiment: Antiviral activity against pseudotyped Ebolavirus harboring GP; format: functional, organism-based; settings: Orthoebolavirus

Row | SMILES | IC50 (Marburgvirus) | IC50 (Ebolavirus [1]) | selectivity ratio [2] | selectivity ratio [3] | IC50 (Ebolavirus [4])
1 | CN1CCN(CCCC(=O)O[C@H]2C(C)(C)[C@H]3CC[C@]2(C)C3)CC1 | 20.7 µM | 3.1 µM | – | – | –
2 | CC1(C)[C@H]2CC[C@](C)(C2)[C@H]1OC(=O)CN1CCOCC1 | 213 µM | 13 µM | 22 | 1 | –
3 | CN1CCN(CC(=O)O[C@H]2C(C)(C)[C@H]3CC[C@]2(C)C3)CC1 | 27.5 µM | 20.4 µM | – | – | –
4 | CCN1CCN(CCC(=O)O[C@H]2C(C)(C)[C@H]3CC[C@]2(C)C3)CC1 | 25 µM | 8.1 µM | 44 | 14 | –
5 | CC1(C)[C@H]2CC[C@](C)(C2)[C@H]1OC(=O)CCCN1CCCCC1 | 13 µM | 1.9 µM | – | – | –
6 | CN1CCN(CCC(=O)O[C@H]2C(C)(C)[C@H]3CC[C@]2(C)C3)CC1 | 29 µM | 10.1 µM | 45 | 16 | –
7 | C[C@@H]1[C@H]2C[C@@H](C[C@H]1OC(=O)CCN1CCN(c3ccccc3)CC1)C2(C)C | 27 µM | 54 µM | 2 | 4 | –
8 | C[C@@H]1[C@H]2C[C@@H](C[C@H]1OC(=O)CCCN1CCN(c3ccccc3)CC1)C2(C)C | 18 µM | 7.8 µM | 8 | 3 | –
9 | C[C@@H]1[C@H]2C[C@@H](C[C@H]1OC(=O)CCN1CCN(C)CC1)C2(C)C | 13.9 µM | 4.9 µM | – | – | –
10 | CCN1CCN(CCCC(=O)O[C@H]2C(C)(C)[C@H]3CC[C@]2(C)C3)CC1 | 11.3 µM | 2.4 µM | – | – | –
11 | CCN1CCN(S(=O)(=O)C[C@]23CC[C@H](CC2=O)C3(C)C)CC1 | – | – | – | – | 91 µM
12 | C[C@@H]1[C@H]2C[C@@H](C[C@H]1OC(=O)CN1CCN(C)CC1)C2(C)C | 47.6 µM | 4.8 µM | – | – | –
13 | C[C@@H]1[C@H]2C[C@@H](C[C@H]1OC(=O)CN1CCN(c3ccccc3)CC1)C2(C)C | 25 µM | 9 µM | 6 | 2 | –
14 | CC1CCN(CC(=O)O[C@H]2C(C)(C)[C@H]3CC[C@]2(C)C3)CC1 | 20.4 µM | 20.5 µM | – | – | –
15 | CC1(C)[C@H]2CC[C@](C)(C2)[C@H]1OC(=O)CCCN1CCN(c2ccccc2)CC1 | 6 µM | 0.54 µM | 22 | 10 | –
16 | CC1(C)[C@H]2CC[C@](C)(C2)[C@H]1OC(=O)CCN1CCN(c2ccccc2)CC1 | 7.3 µM | 10 µM | 2 | 3 | –
17 | CCN1CCN(CC(=O)O[C@H]2C(C)(C)[C@H]3CC[C@]2(C)C3)CC1 | 30.1 µM | 9.1 µM | – | – | –
18 | CC1(C)[C@H]2CC[C@](C)(C2)[C@H]1OC(=O)CN1CCCCC1 | 164 µM | 17.1 µM | 13 | 1 | –

Row | SMILES | IC50 (Marburgvirus) | IC50 (Ebolavirus [1]) | selectivity ratio [2] | selectivity ratio [3] | IC50 (Ebolavirus [4])
19 | CC1(C)[C@@H]2CC[C@@]1(CS(=O)(=O)N1CCCCC1)C(=O)C2 | – | – | – | – | 60 µM
20 | C[C@@H]1[C@H]2C[C@@H](C[C@H]1OC(=O)CCN1CCCCC1)C2(C)C | 24 µM | 14.3 µM | 23 | 13 | –
21 | CC1CCN(CCC(=O)O[C@H]2C(C)(C)[C@H]3CC[C@]2(C)C3)CC1 | 22 µM | 3.9 µM | 48 | 8 | –
22 | CC1(C)[C@H]2CC[C@](C)(C2)[C@H]1OC(=O)CCCN1CCOCC1 | 68 µM | 6.5 µM | 40 | 3 | –
23 | CC1(C)[C@H]2CC[C@](C)(C2)[C@H]1OC(=O)CCN1CCCCC1 | 31 µM | 17 µM | 20 | 11 | –
24 | CC1(C)[C@H]2CC[C@](C)(C2)[C@H]1OC(=O)CN1CCN(c2ccccc2)CC1 | 56 µM | 5.8 µM | 17 | 1 | –
25 | C[C@@H]1[C@H]2C[C@@H](C[C@H]1OC(=O)CCCN1CCN(C)CC1)C2(C)C | 24 µM | 2.8 µM | 58 | 6 | –
26 | CC1(C)[C@@H]2CC[C@@]1(CS(=O)(=O)N1CCOCC1)C(=O)C2 | – | – | – | – | 0.9 µM
27 | C[C@@H]1[C@H]2C[C@@H](C[C@H]1OC(=O)CN1CCOCC1)C2(C)C | – | 106 µM | 1 | – | –
28 | CN1CCN(S(=O)(=O)C[C@]23CC[C@H](CC2=O)C3(C)C)CC1 | – | – | – | – | 540 µM
29 | C[C@@H]1[C@H]2C[C@@H](C[C@H]1OC(=O)CCCN1CCCCC1)C2(C)C | 9 µM | 4 µM | 30 | 13 | –
30 | C[C@@H]1[C@H]2C[C@@H](C[C@H]1OC(=O)CN1CCCCC1)C2(C)C | 107 µM | 42 µM | 7 | 3 | –
31 | C[C@@H]1[C@H]2C[C@@H](C[C@H]1OC(=O)CCN1CCOCC1)C2(C)C | 156 µM | 57 µM | 4 | 1 | –
32 | C[C@@H]1[C@H]2C[C@@H](C[C@H]1OC(=O)CCCN1CCOCC1)C2(C)C | 39 µM | 21 µM | 5 | 2 | –
33 | CC1(C)[C@H]2CC[C@](C)(C2)[C@H]1OC(=O)CCN1CCOCC1 | 64.4 µM | 57.9 µM | – | – | –
34 | CC1CCN(CCCC(=O)O[C@H]2C(C)(C)[C@H]3CC[C@]2(C)C3)CC1 | 26.4 µM | 2.8 µM | – | – | –
35 | CN(C)CCOc1ccc(/C(=C(/CCCl)c2ccccc2)c2ccccc2)cc1 [TOREMIFENE] | 0.7 µM | 0.2 µM | – | – | –
